In patent US8916549B2, “Thienooxazepine derivative” (Takeda Pharmaceutical Company Limited, priority 2009, dated 2014):
Where a name gives a salt, the structure may show the parent alone.

biological target: serotonin 5-HT2C receptor (isoform type VSV, stably expressing CHO cell) (Homo sapiens, UniProt P28335, I156V/I160V/N158S); test: cell-based; conditions: read-out: ratio to maximum response by 5-HT (1 μM)
Sequence (P28335 33-458 I156V/N158S/I160V limits assumed): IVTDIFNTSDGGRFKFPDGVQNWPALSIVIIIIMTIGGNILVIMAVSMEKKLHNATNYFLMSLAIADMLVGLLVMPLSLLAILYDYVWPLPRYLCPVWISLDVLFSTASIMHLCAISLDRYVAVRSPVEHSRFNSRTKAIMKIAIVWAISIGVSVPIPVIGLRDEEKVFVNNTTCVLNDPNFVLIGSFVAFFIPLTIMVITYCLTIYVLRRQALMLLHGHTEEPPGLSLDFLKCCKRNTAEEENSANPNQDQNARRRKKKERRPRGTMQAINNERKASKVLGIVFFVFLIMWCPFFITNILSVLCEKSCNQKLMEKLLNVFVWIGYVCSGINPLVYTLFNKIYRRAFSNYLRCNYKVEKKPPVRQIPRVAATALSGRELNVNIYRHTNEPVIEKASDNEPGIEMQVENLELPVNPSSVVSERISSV

| Structure (SMILES) | Emax |
| --- | --- |
| Fc1cccc(-c2csc3c2OCCNC3)c1 [Example 2, 8-(3-fluorophenyl)-2,3,4,5-tetrahydrothieno[2,3-f][1,4]oxazepine 1 hydrochloride] | 101% |
| c1sc2c(c1C1CC1)OCCNC2 [Example 3, 8-cyclopropyl-2,3,4,5-tetrahydrothieno[2,3-f][1,4]oxazepine 1 hydrochloride] | 98% |
| CC(C)c1csc2c1OCCNC2 [Example 4, 8-(1-methylethyl)-2,3,4,5-tetrahydrothieno[2,3-f][1,4]oxazepine 1 hydrochloride] | 99% |
| c1sc2c(c1C1CCC1)OCCNC2 [Example 5, 8-cyclobutyl-2,3,4,5-tetrahydrothieno[2,3-f][1,4]oxazepine 1 hydrochloride] | 107% |
| COc1cccc(-c2csc3c2OC(C)CNC3)c1 (stereo not drawn) [Example 6, 8-(3-methoxyphenyl)-2-methyl-2,3,4,5-tetrahydrothieno[2,3-f][1,4]oxazepine 1 hydrochloride] | 97% |
| C[C@H]1CNCc2scc(-c3cccc(F)c3)c2O1 [Example 12, (2S)-8-(3-fluorophenyl)-2-methyl-2,3,4,5-tetrahydrothieno[2,3-f][1,4]oxazepine 1 hydrochloride] | 101% |
| C[C@H]1CNCc2scc(C3CC3)c2O1 [Example 14, (2S)-8-cyclopropyl-2-methyl-2,3,4,5-tetrahydrothieno[2,3-f][1,4]oxazepine 1 hydrochloride] | 100% |
| CC(C)c1csc2c1O[C@@H](C)CNC2 [Example 15, (2S)-2-methyl-8-(1-methylethyl)-2,3,4,5-tetrahydrothieno[2,3-f][1,4]oxazepine 1 hydrochloride] | 96% |
| CCCc1csc2c1O[C@@H](C)CNC2 [Example 16, (2S)-2-methyl-8-propyl-2,3,4,5-tetrahydrothieno[2,3-f][1,4]oxazepine 1 hydrochloride] | 97% |
| Cc1sc2c(c1C1CC1)OCCNC2 [Example 17, 8-cyclopropyl-7-methyl-2,3,4,5-tetrahydrothieno[2,3-f][1,4]oxazepine 1 hydrochloride] | 91% |
| CC(c1csc2c1OCCNC2)C(F)(F)F (stereo not drawn) [Example 20, 8-(2,2,2-trifluoro-1-methylethyl)-2,3,4,5-tetrahydrothieno[2,3-f][1,4]oxazepine 1 hydrochloride] | 85% |
| CC(c1csc2c1O[C@@H](C)CNC2)C(F)(F)F (stereo partly drawn) [Example 21, (2S)-2-methyl-8-(2,2,2-trifluoro-1-methylethyl)-2,3,4,5-tetrahydrothieno[2,3-f][1,4]oxazepine 1 hydrochloride] | 94% |
